# Measured values: patent US6737383B1, “Herbicidal oxadiazolidines” (priority 1999, dated 2004)
# Assays:
# maize hybrid P33G26 = assay: Test G maize injury with safener-treated seed; conditions: absence of any safener; rates ranging from 140 to 1120 g/ha
# Method: In soil-containing pots were planted seeds of maize hybrid P33G26 that was previously treated with dichlomid, fenchlorazole-ethyl, and naphthalic anhydride (or no safener). The soil surface was then treated with several rates of Compound 131 or Compound 146 dissolved in a non-phytotoxic solvent using a flat-fan sprayer calibrated to deliver 310 L/ha. Treatmemtes were replicated 4 or 5 times. The treated and untreated plants were allowed to grow in a greenhouse using supplementary artificial lighting with a day-length of 14 hours, with the temperature maintained at about 27° C. during the day and 24° C. during the night. Plants were kept watered with a dilute balanced fertilizer solution.
# At 28 days after application, the treated plants were compared with untreated controls and vissually evaluated.
# hairy beggarticks = assay: Test C postemergence hairy beggarticks; format: in vivo, Bidens pilosa; conditions: 0 to 100 scale, 0 no effect, 100 complete control
# Method: (§1) Compounds evaluated in this test were formulated in a non-phytotoxic solvent mixture which included a surfactant and applied to plants that were grown for various periods of time before treatment (postemergence application). A mixture of sandy loam soil and greenhouse potting mix in a 60:40 ratio was used for the postemergence test.
# (§2) Plantings of these crops and weed species were adjusted to produce plants of appropriate size for the postemergence test. All plant species were grown using normal greenhouse practices. Crop and weed species include arrowleaf sida (Sida rhombifolia), barnyardgrass (Echinochloa crus-galli), cocklebur (Xanthium strumarium), common ragweed (Ambrosia elatior), corn (Zea mays), cotton (Gossypium hirsutum), eastern black nightshade (Solanum ptycanthum), fall panicum (Panicum dichotomiflorum), field bindweed (Convolvulus arvensis), giant foxtail (Setaria faberii), hairy beggarticks (Bidens pilosa), ivyleaf morningglory (Ipomoea hederacea), johnsongrass (Sorghum halepense), ladysthumb smartweed (Polygonum persicaria), lambsquarters (Chenopodium album), large crabgrass (Digitaria sanguinalis), purple nutsedge (Cyperus rotundus), redroot pigweed (Amaranthus retroflexus), soybean (Glycine max), surinam grass (Brachiaria decumbens), velvetleaf (Abutilon theophrasti) and wild poinsettia (Euphorbia heterophylla).
# (§3) Treated plants and untreated controls were maintained in a greenhouse for approximately 14, to 21 days, after which all treated plants were compared to untreated controls and visually evaluated. Plant response ratings, summarized in Table C, were based upon a 0 to 100 scale where 0 was no effect and 100 was complete control. A dash response (−) means no test result.
# field bindweed = assay: Test C postemergence field bindweed; format: in vivo, Convolvulus arvensis; conditions: 0 to 100 scale, 0 no effect, 100 complete control
# Method: as §1, §2, §3
# Green foxtail = assay: Test D green foxtail; format: in vivo
# How it was run: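 Weed seeds planted in sandy loam; species kept apart in individual pots or compartments. Preemergence tests: treatment to soil surface within one day. Greenhouse growth, then visual injury scoring at 14–21 days (0–100).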
# surinam grass = assay: Test C postemergence surinam grass; format: in vivo, Brachiaria decumbens; conditions: 0 to 100 scale, 0 no effect, 100 complete control
# How it was run: (§4)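 Compounds in a non-phytotoxic solvent mixture with surfactant were sprayed postemergence on greenhouse-grown plants sized for treatment, in 60:40 sandy loam soil:potting mix. After about 14 to 21 days, injury was rated visually against untreated controls on a 0–100 scale (0 no effect, 100 complete control).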
# [1] = system: Digitaria sanguinalis (DIGSA); assay: Test F preemergence, alone and in mixture with rimsulfuron, DIGSA; format: in vivo; conditions: 21 days after treatment, 0-100 scale
# Method: (§5) Abutilon theophrasti (ABUTH), Chenopodium album (CHEAL), Amaranthus rudis (AMATA), Setaria faberii (SETFA), Panicum dichotomiflorum (PANDI), and Digitaria sanguinalis (DIGSA) were grown from seed in pots of an artificial potting mixture in a greenhouse. Compounds of the present invention were applied at 70 and 105 g ai/ha preemergence. Rimsulfuron was applied at 8.8 and 17.5 g ai/ha. Mixtures of the compounds of the present invention and rimsulfuron were also applied.
# (§6) Following application, the plants were maintained by watering as needed. A fertilizer solution of Peter's 20-20-20 (10 pounds/5 gallons of water) plus Sprint 330, a Iron Chelate micronutrient, (113.5 grams/5 gallons of water) was injected into the water with an Anderson fertilizer injection system to provide approximately 219 ppm of nitrogen with each watering. Artificial lighting was used to supplement natural light to produce a 14 hour photoperiod and: an additional one hour light period was used between 1:00 am to 2:00 am for a night interruption. Greenhouse temperatures were targeted for 27° C. in the day and 21° C. at night. At 21 days after treatment, all plants were evaluated for injury as compared to control plants that were sprayed only with non-phytotoxic solvent.
# (§7) Colby's equation was used to calculate the expected additive herbicidal effect of the mixtures of Compound 21 and the mixture partners listed above. […]
# cotton = assay: Test C postemergence cotton; format: in vivo, Gossypium hirsutum; conditions: 0 to 100 scale, 0 no effect, 100 complete control
# Method: as §1, §2, §3
# cocklebur = assay: Test C postemergence cocklebur; format: in vivo, Xanthium strumarium; conditions: 0 to 100 scale, 0 no effect, 100 complete control
# How it was run: as §4
# lambsquarters = assay: Test C postemergence lambsquarters; format: in vivo, Chenopodium album; conditions: 0 to 100 scale, 0 no effect, 100 complete control
# How it was run: as §4
# [2] = system: Chenopodium album (CHEAL); assay: Test F preemergence, alone and in mixture with rimsulfuron, CHEAL; format: in vivo; conditions: 21 days after treatment, 0-100 scale
# Method: as §5, §6, §7
# redroot pigweed = assay: Test C postemergence redroot pigweed; format: in vivo, Amaranthus retroflexus; conditions: 0 to 100 scale, 0 no effect, 100 complete control
# Method: as §1, §2, §3
# [3] = system: Panicum dichotomiflorum (PANDI); assay: Test F preemergence, alone and in mixture with rimsulfuron, PANDI; format: in vivo; conditions: 21 days after treatment, 0-100 scale
# Method: as §5, §6, §7
# johnsongrass = assay: Test C postemergence johnsongrass; format: in vivo, Sorghum halepense; conditions: 0 to 100 scale, 0 no effect, 100 complete control
# Method: as §1, §2, §3
# [4] = Rate 64 g/ha, Preemergence; 0 to 100 scale, 0 no injury, 100 complete control
# [5] = Rate 125 g/ha, Preemergence; 0 to 100 scale, 0 no injury, 100 complete control
# [6] = Alone: Cmpd. rate 70, Rimsulfuron 0
# [7] = Alone: Cmpd. rate 105, Rimsulfuron 0
smiles,measurement,setting,value
CC(C)N(C(=O)n1oc(=O)n(-c2ccccc2OC(F)(F)F)c1=O)c1ccc(F)cc1 [Compound 14],Injury to maize,maize hybrid P33G26,severely injurious to maize
CC(C)N(C(=O)n1oc(=O)n(C(C)C)c1=O)c1ccccc1 [Compound 113],Plant response rating H. beggarticks,hairy beggarticks; Rate 140 g/ha,5
same,Plant response rating H. beggarticks,hairy beggarticks; Rate 280 g/ha,30
same,Plant response rating H. beggarticks,hairy beggarticks; Rate 560 g/ha,30
same,Plant response rating H. beggarticks,hairy beggarticks; Rate 1120 g/ha,50
same,Plant response rating Field bindweed,field bindweed; Rate 140 g/ha,0
same,Plant response rating Field bindweed,field bindweed; Rate 280 g/ha,0
same,Plant response rating Field bindweed,field bindweed; Rate 560 g/ha,50
same,Plant response rating Field bindweed,field bindweed; Rate 1120 g/ha,50
same,"Plant response rating, Green foxtail","Green foxtail; Preemergence; Rate 16 g/ha; 0 to 100 scale, 0 no injury, 100 complete control",80
same,"Plant response rating, Green foxtail","Green foxtail; Preemergence; Rate 32 g/ha; 0 to 100 scale, 0 no injury, 100 complete control",98
same,"Plant response rating, Green foxtail","Green foxtail; Rate 16 g/ha; Preemergence; 0 to 100 scale, 0 no injury, 100 complete control",80
same,"Plant response rating, Green foxtail","Green foxtail; Rate 32 g/ha; Preemergence; 0 to 100 scale, 0 no injury, 100 complete control",70
same,Green foxtail plant response rating,Green foxtail; [4],100
same,"Plant response rating, Green foxtail",Green foxtail; [4],100
same,Green foxtail plant response rating,Green foxtail; [5],100
same,"Plant response rating, Green foxtail",Green foxtail; [5],100
same,"Plant response rating, Surinam grass",surinam grass; Rate 140 g/ha,0
same,"Plant response rating, Surinam grass",surinam grass; Rate 280 g/ha,40
same,"Plant response rating, Surinam grass",surinam grass; Rate 560 g/ha,90
same,"Plant response rating, Surinam grass",surinam grass; Rate 1120 g/ha,90
same,DIGSA Observed,[1]; [6],95%
same,DIGSA Observed,[1]; [7],70%
same,Plant response rating Cotton,cotton; Rate 140 g/ha,10
same,Plant response rating Cotton,cotton; Rate 280 g/ha,15
same,Plant response rating Cotton,cotton; Rate 560 g/ha,50
same,Plant response rating Cotton,cotton; Rate 1120 g/ha,80
same,"Plant response rating, Cocklebur",cocklebur; Rate 140 g/ha,5
same,"Plant response rating, Cocklebur",cocklebur; Rate 280 g/ha,50
same,"Plant response rating, Cocklebur",cocklebur; Rate 560 g/ha,50
same,"Plant response rating, Cocklebur",cocklebur; Rate 1120 g/ha,50
same,Plant response rating Lambsquarters,lambsquarters; Rate 140 g/ha,0
same,Plant response rating Lambsquarters,lambsquarters; Rate 560 g/ha,20
same,Plant response rating Lambsquarters,lambsquarters; Rate 1120 g/ha,50
same,CHEAL Observed,[2]; [6],15%
same,CHEAL Observed,[2]; [7],35%
same,"Plant response rating, Redroot pigweed",redroot pigweed; Rate 140 g/ha,0
same,"Plant response rating, Redroot pigweed",redroot pigweed; Rate 280 g/ha,0
same,"Plant response rating, Redroot pigweed",redroot pigweed; Rate 560 g/ha,0
same,"Plant response rating, Redroot pigweed",redroot pigweed; Rate 1120 g/ha,90
same,PANDI Observed,[3]; [6],100%
same,PANDI Observed,[3]; [7],95%
same,"Plant response rating, Johnsongrass",johnsongrass; Rate 140 g/ha,0
same,"Plant response rating, Johnsongrass",johnsongrass; Rate 280 g/ha,20
same,"Plant response rating, Johnsongrass",johnsongrass; Rate 560 g/ha,60
same,"Plant response rating, Johnsongrass",johnsongrass; Rate 1120 g/ha,95
